Source: US8663647B2, “Epitope peptides derived from vascular endothelial growth factor receptor 1 and vaccines containing these peptides” (Oncotherapy Science, Inc., priority 2005, dated 2014)
“Also recorded” adds a separate entry of the source.

Experiments:
[1] = system: T2 cells and A24-LCL pulsed with candidate peptides; assay: CTL induction with peptide-pulsed DCs and 4-h 51Cr-release cytotoxicity assay on peptide-pulsed target cells; format: cell-based; conditions: human PBMC-derived DCs pulsed with peptide, autologous CD8+ T cells
From the text: Monocyte-derived dendritic cells (DCs) were used to induce CTL responses against peptides presented on HLA as previously described (Nukaya et al., (1999) Int. J. Cancer. 80: 92-7, Tsai et al., (1997) J. Immunol. 158: 1796-802, Nakahara et al., (2003) Cancer Res. 63: 4112-8). In brief, the PBMCs were obtained from the healthy volunteers with corresponding HLAs and cultured in the presence of GM-CSF (provided by Kirin Brewery Company, Japan) and IL-4 (Genzyme/Techne, Minneapolis). After culture for 5 days, OK-432 (Chugai Pharmaceutical Corporation, Japan) was added to the culture to obtain mature DCs (Nakahara et al., (2003) Cancer Res. 63: 4112-8). On day 7, generated mature DCs were pulsed with each peptide for T cell stimulation. Using these peptide-pulsed DCs each time, the autologous CD8+ T cells were stimulated for three times on day 0, 7 and 14, and then the resultant lymphoid cells were tested for their cytotoxic activities on day 21. To generate CTL clones, established CTL lines were plated in 96-well plates at 0.3, 1, and 3 cells per well with allogenic PBMCs and […] as stimulator cells. Cytotoxic activities of resulting CTL clones were tested on the 14th day. Cytotoxic activities were measured using a standard 4-h ^51Cr-release assay. The T2 cells and A24-LCL were used as target cells pulsed with candidate peptides. Percent specific lysis was calculated as follows: % Specific lysis=[(experimental release−spontaneous release)/(maximum release−spontaneous release)]×100. Immunogenicity of Epitope Peptides in A2/Kb TGM

[2] = system: IFN-γ production of CTLs against T2 cells pulsed with peptides; assay: IFN-γ ELISPOT assay, immunogenicity of epitope peptides in A2/Kb TGM; format: in vivo, A2/Kb transgenic mice; conditions: IFA-conjugated peptide injected day 0 and day 11; splenocytes day 21; E/T ratio x20
Method: For priming the peptide-specific CTLs, immunization was given using 200 μl of vaccine mixture, which contains 100 μg of an HLA-A2 restricted peptide and 100 μl of IFA per mouse. The vaccine was injected intradermally in the right flank for the first immunization on day 0 and in the other flank for the second on day 11. On day 21, splenocytes of the vaccinated mice were used as the responder cells, and T2 cells pulsed with or without peptides were used as the stimulator cells for ELISPOT assay.
At first, we evaluated the immunogenicity of the epitope peptides for A2/Kb TGM to examine the specific production of IFN-γ of the CTLs induced with these peptides by ELISPOT assay (FIG. 4). IFA-conjugated peptide was injected s.c. into A2/Kb TGM on day 0 and day 11. On day 21, splenocytes of the vaccinated mice were harvested and used as the responder cells, and T2 cells pulsed with or without peptides were used as the stimulator cells for ELISPOT assay. […] In this ELISPOT assay using A2/Kb TGM system, positive results were shown for the epitope peptides identified using human PBMCs.

[3] = system: angiogenesis induced by MC38 cells; assay: Dorsal air sac (DAS) in vivo angiogenesis assay; parameters: species or system A2/Kb transgenic mice; conditions: vaccinated twice with IFA-conjugated peptide, MC38 chamber, semiquantitative
From the text: We examined the effects of peptide vaccination using dorsal air sac (DAS) assay which was designed to measure in vivo angiogenesis induced by tumor cells as previously described (Oikawa et al., (1997) Anticancer Res. 17: 1881-6). In brief, the A2/Kb TGM were vaccinated twice with 1-week interval in the left flank using IFA conjugated corresponding peptides as previously described with some modification (Schuler et al., (1997) J. Exp. Med. 186: 1183-7, Song et al., (1997) J. Exp. Med. 186: 1247-56, Specht et al., (1997) J. Exp. Med. 186: 1213-21). Millipore chamber (Millipore Corporation, Bedford, Mass.) was filled with PBS containing MC38 cells (1×10^6 cells) and implanted in the dorsum of anesthetized mice on day 0. The implanted chambers were removed from s.c. fascia on day 6 and then black rings were placed at the sites exposed to a direct contact with the chamber. The angiogenic response was assessed with photographs taken using a dissecting microscope. The extent of angiogenesis was determined with the number of newly formed blood vessels of >3 mm in length and scored semi quantitatively using an index ranging from 0 (none) to 5 (many).

MCA205 cells = assay: In vivo anti-tumor effects, therapeutic model; parameters: species or system A2/Kb transgenic mice; conditions: MCA205 i.d. day 0; vaccination with IFA-conjugated peptide after tumor challenge
Method: We examined the anti-tumor effects of this vaccination with a therapeutic model. The 1×10^5 MCA205 cells or the 5×10^5 B16 cells were injected i.d. in the right flank on day 0, and vaccination was performed on day 4 and day 14 using IFA conjugated corresponding peptides. […] The MCA205, a methylcholanthrene-induced murine fibrosarcoma cell line were injected i.d. into A2/Kb TGM on day 0, and vaccination was performed on these mice on 4 and 14 days after the tumor challenge using VEGFR1-1087, -770, -417 peptides conjugated with IFA (FIG. 6).

Sequence | CTL inducibility [1] | Specific production of IFN-γ for the corresponding peptide [2] | Inhibition of tumor-induced angiogenesis (newly formed vessels) ([3]; listed as VEGFR1-1087) | Suppression of tumor growth (MCA205 cells) | Inhibition of tumor-induced angiogenesis (newly formed vessels) ([3]; listed as VEGFR1-770) | Inhibition of tumor-induced angiogenesis (newly formed vessels) ([3]; listed as VEGFR1-417)
VLLWEIFSL (synthetic vascular endothelial growth factor receptor 1 (VEGFR1, Flt-1) epitope peptide binding HLA-A*0201 with high cytotoxic T lymphocyte (CTL) inducibility) [SEQ ID NO: 1] | particularly high CTL inducibility | Specific production of IFN-γ for the corresponding peptide was observed | significant inhibition on angiogenesis was observed; also recorded: Significant inhibition of tumor-induced angiogenesis was observed | Significant suppression of tumor growth was observed |  | 
TLFWLLLTL (synthetic vascular endothelial growth factor receptor 1 (VEGFR1, Flt-1) epitope peptide binding HLA-A*0201 with high cytotoxic T lymphocyte (CTL) inducibility) [SEQ ID NO: 2] | particularly high CTL inducibility | Specific production of IFN-γ for the corresponding peptide was observed |  | Significant suppression of tumor growth was observed | significant inhibition on angiogenesis was observed; also recorded: Significant inhibition of tumor-induced angiogenesis was observed | 
NLTATLIVNV (synthetic vascular endothelial growth factor receptor 1 (VEGFR1, Flt-1) epitope peptide binding HLA-A*0201 with high cytotoxic T lymphocyte (CTL) inducibility) [SEQ ID NO: 13] | particularly high CTL inducibility | Specific production of IFN-γ for the corresponding peptide was observed |  |  |  | significant inhibition on angiogenesis was observed; also recorded: Significant inhibition of tumor-induced angiogenesis was observed
SYGVLLWEIF (synthetic vascular endothelial growth factor receptor 1 (VEGFR1, Flt-1) epitope peptide binding HLA-A*2402 with high cytotoxic T lymphocyte (CTL) inducibility) [SEQ ID NO: 32] | particularly high CTL inducibility |  |  |  |  | 
